Laboratory results: ChEMBL document CHEMBL1909046, “DrugMatrix in vitro pharmacology data”

Experiments:
[1] = target: Sodium-dependent noradrenaline transporter (Homo sapiens, UniProt P23975); test: DRUGMATRIX: Norepinephrine Transporter radioligand binding (ligand: [125I] RTI-55); format: cell membranes, MDCK, Membrane; conditions: mdck; Not Active = under 50% inhibition at 10 µM
Melanocortin receptor 4 = Melanocortin receptor 4 (Homo sapiens, UniProt P32245); format: cell membranes, Membrane; conditions: hek293; also: in other assays of this panel Not Active means under 50% inhibition at 10 µM
Adenosine receptor A3 = target: T1, Adenosine receptor A3 (Homo sapiens, UniProt P0DMS8); format: cell membranes, CHO-K1, Membrane; conditions: cho-k1;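 also: radioligand binding assay with AB-MECA serving as the labeled ligand; in other assays of this panel Not Active means under 50% inhibition at 10 µM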
T1 sequence (P0DMS8 whole entry): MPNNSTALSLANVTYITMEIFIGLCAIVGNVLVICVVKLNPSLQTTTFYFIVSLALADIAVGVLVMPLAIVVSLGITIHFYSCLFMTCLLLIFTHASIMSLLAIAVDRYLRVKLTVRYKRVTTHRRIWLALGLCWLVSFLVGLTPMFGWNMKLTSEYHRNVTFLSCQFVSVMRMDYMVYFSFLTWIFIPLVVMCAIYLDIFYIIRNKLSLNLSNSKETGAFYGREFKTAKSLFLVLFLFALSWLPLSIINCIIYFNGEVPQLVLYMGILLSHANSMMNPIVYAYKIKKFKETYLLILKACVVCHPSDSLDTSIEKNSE

[2] = target: 5-hydroxytryptamine receptor 2B (Homo sapiens, UniProt P41595); format: cell membranes, CHO-K1, Membrane; conditions: cho-k1; also: in other assays of this panel Not Active means under 50% inhibition at 10 µM
Acetylcholinesterase = Acetylcholinesterase (Homo sapiens, UniProt P22303); test: DRUGMATRIX: Acetylcholinesterase enzyme inhibition (substrate: acetylthiocholine); format: cell-based, HEK293; conditions: hek293; Not Active = under 50% inhibition at 10 µM
[3] = DRUGMATRIX: Sodium/nucleoside co-transporter radioligand binding (ligand: nitrobenzylthioinosine); format: cell membranes, Cavia porcellus, Dunkin-Hartley, Cerebral cortex, Membrane; conditions: Not Active = under 50% inhibition at 10 µM

Chain of Acetylcholinesterase (P22303 whole entry): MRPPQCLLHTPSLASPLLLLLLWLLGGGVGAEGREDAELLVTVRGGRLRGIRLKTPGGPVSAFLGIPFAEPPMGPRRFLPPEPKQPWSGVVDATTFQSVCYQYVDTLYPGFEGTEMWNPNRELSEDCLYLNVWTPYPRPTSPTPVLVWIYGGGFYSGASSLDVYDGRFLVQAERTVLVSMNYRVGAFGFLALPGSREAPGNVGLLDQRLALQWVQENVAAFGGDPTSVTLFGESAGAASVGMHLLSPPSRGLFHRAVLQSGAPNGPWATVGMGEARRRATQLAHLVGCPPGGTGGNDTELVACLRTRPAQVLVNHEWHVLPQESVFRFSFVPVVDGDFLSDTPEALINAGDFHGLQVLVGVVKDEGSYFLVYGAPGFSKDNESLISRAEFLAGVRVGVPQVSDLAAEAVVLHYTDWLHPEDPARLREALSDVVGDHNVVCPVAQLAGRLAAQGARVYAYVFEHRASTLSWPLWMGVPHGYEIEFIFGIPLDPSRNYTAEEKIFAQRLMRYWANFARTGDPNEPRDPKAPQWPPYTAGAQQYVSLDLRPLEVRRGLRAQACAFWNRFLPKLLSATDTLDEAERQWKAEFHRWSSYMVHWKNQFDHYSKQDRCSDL
Chain of 5-hydroxytryptamine receptor 2B (P41595 whole entry): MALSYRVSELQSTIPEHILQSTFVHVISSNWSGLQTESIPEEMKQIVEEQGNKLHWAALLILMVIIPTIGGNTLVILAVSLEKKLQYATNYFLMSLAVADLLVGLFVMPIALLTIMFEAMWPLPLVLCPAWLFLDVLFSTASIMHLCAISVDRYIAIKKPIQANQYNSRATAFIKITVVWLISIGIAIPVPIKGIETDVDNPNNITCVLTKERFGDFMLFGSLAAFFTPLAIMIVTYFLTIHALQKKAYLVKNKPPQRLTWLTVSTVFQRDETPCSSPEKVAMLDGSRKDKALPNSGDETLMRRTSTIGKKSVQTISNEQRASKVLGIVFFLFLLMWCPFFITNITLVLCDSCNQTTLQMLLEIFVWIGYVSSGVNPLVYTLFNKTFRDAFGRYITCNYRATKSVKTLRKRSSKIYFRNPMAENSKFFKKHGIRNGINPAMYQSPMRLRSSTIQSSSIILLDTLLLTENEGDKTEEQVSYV
Chain of Sodium-dependent noradrenaline transporter (P23975 whole entry): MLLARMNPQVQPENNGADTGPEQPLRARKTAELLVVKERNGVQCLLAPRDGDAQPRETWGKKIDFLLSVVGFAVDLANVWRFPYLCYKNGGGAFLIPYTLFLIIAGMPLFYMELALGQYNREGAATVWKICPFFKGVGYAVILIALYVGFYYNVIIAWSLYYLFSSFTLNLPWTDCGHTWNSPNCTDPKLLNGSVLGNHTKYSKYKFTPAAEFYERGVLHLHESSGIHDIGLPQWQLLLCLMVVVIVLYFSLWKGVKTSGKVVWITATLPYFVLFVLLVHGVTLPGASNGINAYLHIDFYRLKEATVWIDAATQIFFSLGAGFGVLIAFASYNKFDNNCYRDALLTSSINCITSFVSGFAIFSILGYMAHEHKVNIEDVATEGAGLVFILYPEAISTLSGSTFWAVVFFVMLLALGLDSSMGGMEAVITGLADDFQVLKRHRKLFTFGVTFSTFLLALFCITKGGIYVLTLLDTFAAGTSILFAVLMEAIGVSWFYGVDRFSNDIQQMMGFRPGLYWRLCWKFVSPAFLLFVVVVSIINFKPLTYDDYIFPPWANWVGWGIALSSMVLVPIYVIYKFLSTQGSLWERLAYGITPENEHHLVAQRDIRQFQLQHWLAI
Chain of Melanocortin receptor 4 (P32245 whole entry): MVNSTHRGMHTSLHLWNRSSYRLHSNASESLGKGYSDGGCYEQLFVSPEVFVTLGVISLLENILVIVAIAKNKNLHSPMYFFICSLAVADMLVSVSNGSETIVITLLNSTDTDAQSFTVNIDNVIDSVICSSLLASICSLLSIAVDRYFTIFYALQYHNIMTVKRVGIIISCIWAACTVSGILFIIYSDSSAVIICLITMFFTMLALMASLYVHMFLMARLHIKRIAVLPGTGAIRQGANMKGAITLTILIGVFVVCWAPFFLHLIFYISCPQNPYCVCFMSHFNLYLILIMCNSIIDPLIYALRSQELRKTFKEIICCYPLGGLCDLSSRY

O=C(Nc1ccc(Cl)c(Cl)c1)c1cc(Cl)cc(Cl)c1O [3,3',4',5-TETRACHLOROSALICYLANILIDE]
Not Active: IC50 [1] | IC50 (Melanocortin receptor 4) | IC50 (Adenosine receptor A3) | IC50 [2] | IC50 (Acetylcholinesterase) | IC50 [3] | Ki [3]

COC(=O)Nc1nc2ccc(Sc3ccccc3)cc2[nH]1 [FENBENDAZOLE]
Not Active: IC50 [1] | IC50 (Melanocortin receptor 4) | IC50 (Adenosine receptor A3) | IC50 [2] | IC50 (Acetylcholinesterase) | IC50 [3] | Ki [3]

Nc1ccc(C(=O)O)c(O)c1 [AMINOSALICYLIC ACID]
Not Active: IC50 [1] | IC50 (Melanocortin receptor 4) | IC50 (Adenosine receptor A3) | IC50 [2] | IC50 (Acetylcholinesterase) | IC50 [3] | Ki [3]

COC(=O)C[C@](O)(CCC(C)(C)O)C(=O)O[C@@H]1C(OC)=C[C@]23CCCN2CCc2cc4c(cc2[C@H]13)OCO4 [HARRINGTONINE]
Not Active: IC50 [1] | IC50 (Melanocortin receptor 4) | IC50 (Adenosine receptor A3) | IC50 [2] | IC50 (Acetylcholinesterase) | IC50 [3] | Ki [3]

COc1cc(NC(C)CCCN)c2ncccc2c1 (stereo not drawn) [PRIMAQUINE]
Not Active: IC50 [1] | IC50 (Melanocortin receptor 4) | IC50 (Adenosine receptor A3) | IC50 [2] | IC50 (Acetylcholinesterase) | IC50 [3] | Ki [3]

OC[C@H]1O[C@@H]2O[C@H]3[C@H](O)[C@@H](O)[C@@H](O[C@H]4[C@H](O)[C@@H](O)[C@@H](O[C@H]5[C@H](O)[C@@H](O)[C@@H](O[C@H]6[C@H](O)[C@@H](O)[C@@H](O[C@H]7[C@H](O)[C@@H](O)[C@@H](O[C@H]8[C@H](O)[C@@H](O)[C@@H](O[C@H]1[C@H](O)[C@H]2O)O[C@@H]8CO)O[C@@H]7CO)O[C@@H]6CO)O[C@@H]5CO)O[C@@H]4CO)O[C@@H]3CO [BETADEX]
Not Active: IC50 [1] | IC50 (Melanocortin receptor 4) | IC50 (Adenosine receptor A3) | IC50 [2] | IC50 (Acetylcholinesterase) | IC50 [3] | Ki [3]

COc1cc([C@@H]2c3cc4c(cc3[C@H](O)[C@H]3COC(=O)[C@H]23)OCO4)cc(OC)c1OC [PODOFILOX]
Not Active: IC50 [1] | IC50 (Melanocortin receptor 4) | IC50 (Adenosine receptor A3) | IC50 [2] | IC50 (Acetylcholinesterase) | IC50 [3] | Ki [3]

C[C@H]1C[C@H]2[C@@H]3CCC4=CC(=O)C=C[C@]4(C)[C@@]3(F)[C@@H](O)C[C@]2(C)[C@@]1(O)C(=O)CO [BETAMETHASONE]
Not Active: IC50 [1] | IC50 (Melanocortin receptor 4) | IC50 (Adenosine receptor A3) | IC50 [2] | IC50 (Acetylcholinesterase) | IC50 [3] | Ki [3]

CARBOXYMETHYLCELLULOSE
Not Active: IC50 [1] | Ki [1] | IC50 (Melanocortin receptor 4) | Ki (Melanocortin receptor 4) | IC50 (Adenosine receptor A3) | Ki (Adenosine receptor A3) | IC50 [2] | Ki [2] | IC50 (Acetylcholinesterase) | Ki (Acetylcholinesterase) | IC50 [3] | Ki [3]
